Data on twelve molecules can be found in US5308843A, “Method of inhibiting mammalian topoisomerase II and malignant cell growth in mammals, with substituted (S)-3-methyl-7-oxo-2,3-dihydro-7H-pyrido[1,2,3-de][1,4 ]-benzoxazine(and-benzothiazine)-6-carboxylic acids” (Sterling Drug Inc., priority 1990, dated 1994).

pEC50: −log10 of the molar value.

One test concerns the target T1, human topoisomerase II (Homo sapiens, UniProt P11388).
T1 construct: Topo II was purified from late log phase suspension cultures of HeLa WIS; endogenous in cells; host or cells: HeLa WIS (late log phase suspension cultures); native enzyme purified in house
As to the kind of experiment: Mammalian (human) topoisomerase II inhibition assay: topo II-DNA complex stabilisation. In kind it is biochemical. As to conditions: concentration with activity equal to the EC50 of reference mAMSA; 20 min at 37° C. The text has this: Mammalian Topoisomerase II Inhibition Assay Procedure
The inhibition of human topoisomerase II (hereafter topo II) was quantitated by a procedure adapted from that described by Trask et al., EMBO J., 3, 671-676 (1984). The assay quantitates the amount of topo II covalently complexed by DNA at equilibrium during a topo II reaction. This assay determines the potential of a compound to stabilize this complex, which potential is closely related to the cytotoxicity of the compound.
Topo II was purified from late log phase suspension cultures of HeLa WIS by an adaption of the method described by Per et al., Mol. Pharmacol., 32, 17-25 (1987).
Assays (in duplicate) were assembled at 4° C. Assay mix (25 μl) was distributed in Beckman (No. 265270) 1.5 ml microtitre tubes followed by the addition of 5 μl test compound to yield the final concentrations of assay components:
4 ng 3' end labeled (32p) pBR322 DNA (10^7 DPM/μg)
The assay mix including the test compound was incubated for 20 minutes at 37° C. The reaction was terminated at 37° C. by the addition of 3 μl 10% SDS followed by the addition of 266 μl 10 mM Tris-Cl pH 7.5, 20 μg/ml BSA, 20 μg/ml calf thymus DNA, 1% SDS.
A SDS/protein precipitate was formed by the addition of 28 μl 2.5M KCl followed by chilling on ice for a minimum of 10 minutes. The precipitate was collected and washed with a Brandell cell harvester on a GFB glass fiber filter membrane as follows. The contents of the assay tube were drawn up into the harvester. The tube was then rinsed 7× with 10 mM Tris-Cl pH 7.5, 1 mM EDTA and 100 mM KCl. The precipitate was washed with 1 L of a solution of 10 mM Tris-Cl pH 7.5, 1 mM EDTA, 100 mM KCl followed by 1 L of 95% ethyl alcohol and finally 0.5 L 70% of ethyl alcohol (per 48 samples in each case). After drying, CPM was determined by liquid scintillation counting with 5 ml Biofluor (NEN Research Products) or Readisafe (Beckman Instruments Inc.) cocktail.
Preparation of test compound--A stock solution (6 mg/ml) of test compound was prepared either in 0.1N sodium hydroxide or 0.2N hydrogen chloride. This solution then was diluted 1/5 into water and serially thereafter in either 0.02N sodium hydroxide or 0.04N hydrogen chloride, respectively. The stock solution and serial dilution of the test compound was stored at -20° C. prior to testing.
Screening of test compound--As an initial screen, the test compound was tested at a final concentration of 2, 20 and 200 μg/ml.
Controls--A solvent control which indicates the base level of topo II-DNA complex formed in the absence of the test compound was included in each test. A control, in which topo II was omitted, was included for each test compound at the highest drug concentration tested.
Reference agent--A dose response curve with mAMSA at 0.01, 0.08, 0.16, 0.32, 1.0 and 10 μg/ml was included in each test.
Data reduction--The EC50 (effective concentration at which 50% of the maximal DNA-topo II complex is formed) of a test compound is defined to be the concentration with activity equal to the EC50 of the reference agent, mAMSA. The maximal DNA-topo II complex formed is taken as that equal to that formed at the nearly saturating dose of mAMSA (10 μg/ml).

The test system of test [1] is purified eukaryotic topoisomerase II. As to conditions: Barrett et al. 1987; cited from earlier work.
Test [2] deals with procaryotic and eucaryotic topoisomerase enzymes. As to conditions: Jefson et al. 1989; cited from earlier work.
Test [3] deals with DNA topoisomerase II from calf thymus. As to conditions: Hussy et al. 1986; cited from earlier work.
Test [4] has as its system topoisomerase II of fetal calf thymus. The settings on record: among compared quinolones, Hoshino et al. 1989; cited from earlier work.

T1 sequence (P11388 whole entry): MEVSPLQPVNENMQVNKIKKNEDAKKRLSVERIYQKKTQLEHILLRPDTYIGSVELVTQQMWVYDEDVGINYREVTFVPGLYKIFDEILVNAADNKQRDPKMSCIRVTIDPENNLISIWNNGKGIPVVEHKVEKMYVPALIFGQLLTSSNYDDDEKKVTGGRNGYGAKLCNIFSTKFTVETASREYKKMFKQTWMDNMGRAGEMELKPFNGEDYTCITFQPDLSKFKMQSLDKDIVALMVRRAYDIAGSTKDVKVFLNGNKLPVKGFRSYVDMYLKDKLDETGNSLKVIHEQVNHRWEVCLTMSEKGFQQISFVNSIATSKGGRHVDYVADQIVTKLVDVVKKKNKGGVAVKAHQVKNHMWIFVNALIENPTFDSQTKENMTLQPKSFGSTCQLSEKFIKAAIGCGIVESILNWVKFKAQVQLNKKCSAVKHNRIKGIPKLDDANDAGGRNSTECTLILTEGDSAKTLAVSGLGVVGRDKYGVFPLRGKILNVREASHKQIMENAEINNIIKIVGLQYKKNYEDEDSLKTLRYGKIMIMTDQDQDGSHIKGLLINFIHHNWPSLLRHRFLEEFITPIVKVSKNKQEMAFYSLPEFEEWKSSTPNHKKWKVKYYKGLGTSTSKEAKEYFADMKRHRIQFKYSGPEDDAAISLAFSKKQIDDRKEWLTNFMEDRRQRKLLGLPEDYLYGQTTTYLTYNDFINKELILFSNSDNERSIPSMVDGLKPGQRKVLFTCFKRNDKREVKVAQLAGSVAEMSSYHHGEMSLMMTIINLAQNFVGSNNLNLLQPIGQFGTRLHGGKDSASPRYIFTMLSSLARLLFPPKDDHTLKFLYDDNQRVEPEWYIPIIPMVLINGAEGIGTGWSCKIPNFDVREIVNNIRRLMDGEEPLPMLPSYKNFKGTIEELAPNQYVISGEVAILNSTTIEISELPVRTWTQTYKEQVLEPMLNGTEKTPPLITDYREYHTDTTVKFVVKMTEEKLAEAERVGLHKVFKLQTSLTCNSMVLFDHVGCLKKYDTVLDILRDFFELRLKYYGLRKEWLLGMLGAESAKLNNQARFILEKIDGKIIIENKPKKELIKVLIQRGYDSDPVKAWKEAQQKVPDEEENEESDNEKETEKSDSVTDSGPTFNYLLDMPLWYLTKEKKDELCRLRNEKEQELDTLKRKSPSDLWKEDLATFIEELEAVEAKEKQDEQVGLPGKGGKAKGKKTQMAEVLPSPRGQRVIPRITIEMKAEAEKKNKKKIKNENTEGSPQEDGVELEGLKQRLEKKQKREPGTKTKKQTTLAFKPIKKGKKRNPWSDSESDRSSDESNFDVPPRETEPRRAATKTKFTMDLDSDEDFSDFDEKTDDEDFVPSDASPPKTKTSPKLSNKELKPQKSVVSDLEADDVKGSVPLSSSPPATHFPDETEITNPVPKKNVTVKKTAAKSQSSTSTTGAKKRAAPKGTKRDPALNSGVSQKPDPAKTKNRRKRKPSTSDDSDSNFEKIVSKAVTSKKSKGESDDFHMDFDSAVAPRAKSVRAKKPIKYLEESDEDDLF

For the molecule `C[C@H]1COc2c(-c3ccncc3)c(F)cc3c(=O)c(C(=O)O)cn1c23` [1(b), (S)-10-(4-Pyridinyl)-9-fluoro-2,3-dihydro-3-methyl-7-oxo-7H-pyrido[1,2,3-de][1,4]benzoxazine-6-carboxylic acid], the pEC50 at human topoisomerase II is 4.24.
Still for that read-out and setting: in the case of `CCc1cc(-c2c(F)cc3c(=O)c(C(=O)O)cn4c3c2OC[C@@H]4C)ccn1` [3(c), (S)-10-(2-Ethyl-4-pyridinyl)-9-fluoro-2,3-dihydro-3-methyl-7-oxo-7H-pyrido[1,2,3-de][1,4]benzoxazine-6-carboxylic acid] it was 4.04.
With `CCn1cc(C(=O)O)c(=O)c2cc(F)c(-c3ccncc3)c(F)c21` [CP-67,015, 6,8-difluoro-1-ethyl-7-(4-pyridyl)-1,4-dihydro-4-oxo-3-quinolinecarboxylic acid], the “enhancement/induction of DNA cleavage mediated by topoisomerase II (in words)” value in test [1] was “induced significant DNA cleavage in both the radiolabeled and cold cleavage assays”.
With `CCc1cc(-c2c(F)cc3c(=O)c(C(=O)O)cn4c3c2OC[C@@H]4C)cc(C)n1` [Example 2(d), (S)-10-(2-Ethyl-6-methyl-4-pyridinyl)-9-fluoro-2,3-dihydro-3-methyl-7-oxo-7H-pyrido[1,2,3-de][1,4]benzoxazine-6-carboxylic acid], the pEC50 on human topoisomerase II was 4.17.
On the same count and under the same terms, to `Cc1cc(-c2c(F)cc3c(=O)c(C(=O)O)cn4c3c2[S@@+]([O-])CC4C)cc(C)n1` (stereo partly drawn) [Example 4, (S)-10-(2,6-Dimethyl-4-pyridinyl)-9-fluoro-3-methyl-7-oxo-2,3-dihydro-7H-pyrido[1,2,3-de][1,4]benzothiazine-6-carboxylic acid 1-oxide] belongs 4.21; to `Cc1cc(-c2c(F)c(F)c3c(=O)c(C(=O)O)cn4c3c2OC[C@@H]4C)cc(C)n1` [Example 6, (S)-10-(2,6-Dimethyl-4-pyridinyl)-8,9-difluoro-3-methyl-7-oxo-2,3-dihydro-7H-pyrido[1,2,3-de][1,4]benzoxazine-6-carboxylic acid], 4.30.
`Cc1cc(-c2c(F)cc3c(=O)c(C(=O)O)cn4c3c2OC[C@@H]4C)cc(C)n1` [Example 7, (S)-10-(2,6-Dimethyl-4-pyridinyl)-9-fluoro-3-methyl-7-oxo-2,3-dihydro-7H-pyrido[1,2,3-de][1,4]benzoxazine-6-carboxylic acid] had a pEC50 at human topoisomerase II of 4.51.
Regarding `C[C@H]1COc2c(-c3ccncc3)c(F)cc3c(=O)c(C(=O)O)cn1c23` [S-(-)-CP-92,121, (S)-9-fluoro-3-methyl-10-(4-pyridyl)-7-oxo-7H-pyrido[1,2,3-de][1,4]benzoxazine-6-carboxylic acid], in test [2], the “combined activity against procaryotic and eucaryotic topoisomerase enzymes (in words)” value is listed as “combined potent activity”.
For `C[C@H]1COc2c(-c3ccc4ncccc4c3)c(F)cc3c(=O)c(C(=O)O)cn1c23` [S-(-)-CP-100,964, (S)-9-fluoro-3-methyl-10-(6-quinolyl)-7-oxo-7H-pyrido[1,2,3-de][1,4]benzoxazine-6-carboxylic acid], in test [2], the “combined activity against procaryotic and eucaryotic topoisomerase enzymes (in words)” value was “combined potent activity”.
As to `O=C(O)c1cn(C2CC2)c2cc(N3CCNCC3)c(F)cc2c1=O` [ciprofloxacin, 1-cycloproyl-6-fluoro-7-(1-piperazinyl)-1,4-dihydro-4-oxo-3-quinolinecarboxylic acid], the “Ki values of 50% inhibition” value in test [3] is 150 µg/mL.
With `CCn1cc(C(=O)O)c(=O)c2cc(F)c(N3CCNCC3)cc21` [norfloxacin, 1-ethyl-6-fluoro-7-(1-piperazinyl)-1,4-dihydro-4-oxo-3-quinolinecarboxylic acid], the “Ki values of 50% inhibition” value in test [3] is 300 µg/mL. Moreover, the “enhancement/induction of DNA cleavage mediated by topoisomerase II (in words)” value in test [1] is listed as “not to be potent enhancers of DNA cleavage mediated by topoisomerase II”.
With `CC1COc2c(N3CCN(C)CC3)c(F)cc3c(=O)c(C(=O)O)cn1c23` (centres unmarked) [ofloxacin, 9-fluoro-3-methyl-10-(4-methyl-1-piperazinyl)-7-oxo-2,3-dihydro-7H-pyrido[1,2,3-de][1,4]benzoxazine-6-carboxylic acid], the “potency of inhibition of topoisomerase II (in words)” value in test [4] is reported as “lowest”. Also, in test [3], the “Ki values of 50% inhibition” value was 1300 µg/mL.

In general, pEC50 refers to the EC50 on a negative log10 scale, so that one unit is a factor of ten.
